Experimental data: US20110311601A1, “ANTIMICROBIAL MEDICAL DEVICES” (priority 2010, published 2011)
Where no end group is shown, it is not given here.

Experiments:
Assay in all cases: micro-dilution assay (MBC, LD90)
Assay type in all cases: cell-based
[1] = system: Pseudomonas aeruginosa ATCC 11440
Protocol: (§1) The anti-bacterial activity of hβD2 was tested by a micro-dilution assay. Bacteria and fungi were streaked from a glycerol stock onto a Brain Heart Infusion (BHI) agar plate (3.7% w/v BHI Bouillon, 1.5% w/v Agar), grown overnight at 37° C. and 30° C., respectively and subsequently used to inoculate 40 ml of 3.7% w/v BHI Bouillon without any antibiotics in 100 ml flasks. Fresh cells were harvested by centrifugation at 16000 rpm for 10 min and washed twice with 10 mM sodium phosphate buffer, pH 7.2. The optical density was adjusted to 10^4 cells/ml. For anti-bacterial testing hβD2 was incubated in one well of a microtiter plate containing 100 μl of the bacterial suspension. Therefore, ten microlitres of hβD2 solution with a range of final concentrations tested from 0.0125 up to and including 100 mg/l was added to the bacterial suspension and incubated at 37° C. and 30° C., respectively for 2 h before colony forming units were determined. Colony forming units (CFU) were determined after plating 100 μl of a 1:100 dilution of the bacterial suspension on petri dishes with BHI medium and incubating them overnight at 37° C. For every group of the hβD2 added samples and the controls, 5 independent anti-bacterial assays were performed. A control (NC) of bacterial growth was examined for every independent assay. The number of CFU on the control (consisting of a single petri dish) was set to 0% bactericidal activity. The reduction in the CFU resulting from the anti-bacterial activity of hβD2 was related to the absolute CFU of the control within every independent assay. This value, given as a percentage of the bacterial “killing” activity, was used to describe the antibacterial activity. This kind of normalisation of the antibacterial data was performed for every experimental group.
(§2) The antibacterial activity of hβD2 were given either as minimum bactericidal concentration (MBC), i.e., the minimum concentration of hβD2 in μg/ml which is required to kill 99.9% of the bacteria or fungi or as lethal dose (LD90), i.e., the concentration of hβD2 in μg/ml which is lethal for 90% of bacteria or fungi.

[2] = system: Proteus vulgaris ATCC 13315
Protocol: as §1, §2

[3] = system: Corynebacterium amycolatum RV A2/97
Protocol: as §1, §2

[4] = system: Acinetobacter calcoaceticus ATCC 23055
Protocol: as §1, §2

[5] = system: Staphylococcus aureus ATCC 43300 (MRSA)
Protocol: as §1, §2

[6] = system: Prevotella intermedia ATCC 25611
Protocol: as §1, §2

[7] = system: Burkholderia cepacia ATCC 25416
Protocol: as §1, §2

[8] = system: Streptococcus pyogenes ATCC 12344
Protocol: as §1, §2

[9] = system: Proteus mirabilis ATCC 21100
Protocol: as §1, §2

[10] = system: Serratia marcescens Mero 060/148 (wild-type)
Protocol: as §1, §2

[11] = system: Enterococcus faecium (VRE) Ulm 68 (wild-type)
Protocol: as §1, §2

[12] = system: Morganella morganii RV B4/97
Protocol: as §1, §2

[13] = system: Pseudomonas aeruginosa CF 645 (mukoid)(wild-type)
Protocol: as §1, §2

[14] = system: Aeeromonas hydrophila ATCC 7966
Protocol: as §1, §2

[15] = system: Proteus mirabilis ATCC 9240
Protocol: as §1, §2

[16] = system: Proteus mirabilis UR 1536/03 (wild-type)
Protocol: as §1, §2

[17] = system: Proteus vulgaris UR 1464/03 (wild-type)
Protocol: as §1, §2

[18] = system: Eikenella corrodens (wild-type)
Protocol: as §1, §2

[19] = system: Proteus vulgaris Mero 103/067 (wild-type)
Protocol: as §1, §2

[20] = system: Acinetobacter genosp. 3 ATCC 19004
Protocol: as §1, §2

[21] = system: E. coli (ESBL 1) UR 2884/99 (wild-type)
Protocol: as §1, §2

[22] = system: Saccharomyces cerevisiae ATCC 9763
Protocol: as §1, §2

[23] = system: Pseudomonas putida BK 4912
Protocol: as §1, §2

[24] = system: Proteus mirabilis UR 1354/03 (wild-type)
Protocol: as §1, §2

[25] = system: Enterobacter cloacae Va 12270/03 (wild-type)
Protocol: as §1, §2

[26] = system: Candida parapsilosis ATCC 90018
Protocol: as §1, §2

human β-defensin-2 (GIGDPVTCLKSGAICHPVFCPRRYKQIGTCGLPGTKCCKKP; ends and bridges not checked; cysteine pairing not given here) [hβD2, recombinant hβD2]
LD 90 = μg/ml 90% killing [1]: 12.5 µg/mL
MBC = μg/ml 99.9% killing [1]: 12.5 µg/mL
LD 90 = μg/ml 90% killing [2]: 3.125 µg/mL
MBC = μg/ml 99.9% killing [2]: 12.5 µg/mL
LD 90 = μg/ml 90% killing [3]: 6.25 µg/mL
MBC = μg/ml 99.9% killing [3]: 25 µg/mL
LD 90 = μg/ml 90% killing [4]: 0.39 µg/mL
MBC = μg/ml 99.9% killing [4]: 0.78 µg/mL
LD 90 = μg/ml 90% killing [5]: 100 µg/mL
MBC = μg/ml 99.9% killing [5]: >100 µg/mL
LD 90 = μg/ml 90% killing [6]: 3.125 µg/mL
MBC = μg/ml 99.9% killing [6]: 3.125 µg/mL
LD 90 = μg/ml 90% killing [7]: 100 µg/mL
MBC = μg/ml 99.9% killing [7]: >100 µg/mL
LD 90 = μg/ml 90% killing [8]: 100 µg/mL
MBC = μg/ml 99.9% killing [8]: >100 µg/mL
LD 90 = μg/ml 90% killing [9]: 50 µg/mL
MBC = μg/ml 99.9% killing [9]: >100 µg/mL
LD 90 = μg/ml 90% killing [10]: 50 µg/mL
MBC = μg/ml 99.9% killing [10]: 100 µg/mL
LD 90 = μg/ml 90% killing [11]: 100 µg/mL
MBC = μg/ml 99.9% killing [11]: >100 µg/mL
LD 90 = μg/ml 90% killing [12]: 100 µg/mL
MBC = μg/ml 99.9% killing [12]: >100 µg/mL
LD 90 = μg/ml 90% killing [13]: 25 µg/mL
MBC = μg/ml 99.9% killing [13]: 12.5 µg/mL
LD 90 = μg/ml 90% killing [14]: 100 µg/mL
MBC = μg/ml 99.9% killing [14]: >100 µg/mL
LD 90 = μg/ml 90% killing [15]: 100 µg/mL
MBC = μg/ml 99.9% killing [15]: >100 µg/mL
LD 90 = μg/ml 90% killing [16]: 100 µg/mL
MBC = μg/ml 99.9% killing [16]: >100 µg/mL
LD 90 = μg/ml 90% killing [17]: 3.125 µg/mL
MBC = μg/ml 99.9% killing [17]: 12.5 µg/mL
LD 90 = μg/ml 90% killing [18]: 50 µg/mL
MBC = μg/ml 99.9% killing [18]: 50 µg/mL
LD 90 = μg/ml 90% killing [19]: 100 µg/mL
MBC = μg/ml 99.9% killing [19]: >100 µg/mL
LD 90 = μg/ml 90% killing [20]: 0.2 µg/mL
MBC = μg/ml 99.9% killing [20]: 0.78 µg/mL
LD 90 = μg/ml 90% killing [21]: 3.125 µg/mL
MBC = μg/ml 99.9% killing [21]: 12.5 µg/mL
LD 90 = μg/ml 90% killing [22]: 3.125 µg/mL
MBC = μg/ml 99.9% killing [22]: 25 µg/mL
LD 90 = μg/ml 90% killing [23]: 6.25 µg/mL
MBC = μg/ml 99.9% killing [23]: 12.5 µg/mL
LD 90 = μg/ml 90% killing [24]: 100 µg/mL
MBC = μg/ml 99.9% killing [24]: >100 µg/mL
LD 90 = μg/ml 90% killing [25]: 6.25 µg/mL
MBC = μg/ml 99.9% killing [25]: 12.5 µg/mL
LD 90 = μg/ml 90% killing [26]: 12.5 µg/mL
MBC = μg/ml 99.9% killing [26]: 25 µg/mL
